Species: Rattus norvegicus
Experiment: DrugMatrix - Regimen: Daily Repeat
Format: toxicity, organism-based, Sprague-Dawley
Set-up: regimen Daily Repeat, gender Male, age 6-8 weeks
Settings: in vivo, po, route oral GAVAGE, vehicle .5 % CMC; for BASOPHIL / EOSINOPHIL / ERYTHROCYTE COUNT / HEMATOCRIT / HEMOGLOBIN / LEUKOCYTE COUNT / LYMPHOCYTE / MEAN CORPUSCULAR HEMOGLOBIN / MEAN CORPUSCULAR HEMOGLOBIN CONCENTRATION / MEAN CORPUSCULAR VOLUME / MONOCYTE / NEUTROPHIL / PLATELET COUNT: tissue Blood; for ALANINE AMINOTRANSFERASE / ALBUMIN / ALKALINE PHOSPHATASE / ASPARTATE AMINOTRANSFERASE / BLOOD UREA NITROGEN / CARBON DIOXIDE / CHLORIDE / CHOLESTEROL / CREATINE PHOSPHOKINASE / CREATININE / GLUCOSE / LACTATE DEHYDROGENASE / LIPASE / PHOSPHORUS / POTASSIUM / SODIUM / TOTAL BILIRUBIN / TOTAL PROTEIN / URIC ACID: tissue Plasma
[1] = 0 mg/kg, 72 h, dose level Control, time 3 day
[2] = 0 mg/kg, 120 h, dose level Control, time 5 day
[3] = 0 mg/kg, […], dose level Control, time 14 day
[4] = 82 mg/kg, 72 h, dose level High, time 3 day
[5] = 82 mg/kg, 120 h, dose level High, time 5 day
[6] = 82 mg/kg, […], dose level High, time 14 day

CCOP(=S)(OCC)Oc1nc(Cl)c(Cl)cc1Cl [CHLORPYRIFOS]
BASOPHIL [1]: 0.62%
EOSINOPHIL [1]: 0.52%
ERYTHROCYTE COUNT [1]: 6.33 x10E6/uL
HEMATOCRIT [1]: 41.88%
HEMOGLOBIN [1]: 13.52 G/DL
LEUKOCYTE COUNT [1]: 11.39 x10E3/uL
LYMPHOCYTE [1]: 86.18%
MEAN CORPUSCULAR HEMOGLOBIN [1]: 21.35 pg
MEAN CORPUSCULAR HEMOGLOBIN CONCENTRATION [1]: 32.23 G/DL
MEAN CORPUSCULAR VOLUME [1]: 66.25 fL
MONOCYTE [1]: 1.93%
NEUTROPHIL [1]: 9.1%
PLATELET COUNT [1]: 1204.5 x10E3/uL
ALANINE AMINOTRANSFERASE [1]: 43 u/L
ALBUMIN [1]: 4.08 G/DL
ALKALINE PHOSPHATASE [1]: 426.33 u/L
ASPARTATE AMINOTRANSFERASE [1]: 72.5 u/L
BLOOD UREA NITROGEN [1]: 16.67 mg/dL
CARBON DIOXIDE [1]: 28.33 mmol/L
CHLORIDE [1]: 103.5 MEQ/L
CHOLESTEROL [1]: 78.83 mg/dL
CREATINE PHOSPHOKINASE [1]: 325.67 u/L
CREATININE [1]: 0.48 mg/dL
GLUCOSE [1]: 171.67 mg/dL
LACTATE DEHYDROGENASE [1]: 107.33 u/L
LIPASE [1]: 11.83 u/L
PHOSPHORUS [1]: 12.55 mg/dL
POTASSIUM [1]: 6.57 MEQ/L
SODIUM [1]: 145.67 MEQ/L
TOTAL BILIRUBIN [1]: 0.42 mg/dL
TOTAL PROTEIN [1]: 6.1 G/DL
URIC ACID [1]: 1.57 mg/dL
BASOPHIL [2]: 0.48%
EOSINOPHIL [2]: 0.67%
ERYTHROCYTE COUNT [2]: 6.69 x10E6/uL
HEMATOCRIT [2]: 44.17%
HEMOGLOBIN [2]: 13.78 G/DL
LEUKOCYTE COUNT [2]: 7.86 x10E3/uL
LYMPHOCYTE [2]: 85.9%
MEAN CORPUSCULAR HEMOGLOBIN [2]: 20.6 pg
MEAN CORPUSCULAR HEMOGLOBIN CONCENTRATION [2]: 31.25 G/DL
MEAN CORPUSCULAR VOLUME [2]: 65.9 fL
MONOCYTE [2]: 3.27%
NEUTROPHIL [2]: 8.67%
PLATELET COUNT [2]: 1182.33 x10E3/uL
ALANINE AMINOTRANSFERASE [2]: 37.5 u/L
ALBUMIN [2]: 4 G/DL
ALKALINE PHOSPHATASE [2]: 348.17 u/L
ASPARTATE AMINOTRANSFERASE [2]: 71.67 u/L
BLOOD UREA NITROGEN [2]: 13 mg/dL
CARBON DIOXIDE [2]: 27 mmol/L
CHLORIDE [2]: 104.67 MEQ/L
CHOLESTEROL [2]: 73.33 mg/dL
CREATINE PHOSPHOKINASE [2]: 211.33 u/L
CREATININE [2]: 0.23 mg/dL
GLUCOSE [2]: 155 mg/dL
LACTATE DEHYDROGENASE [2]: 133.83 u/L
LIPASE [2]: 11.17 u/L
PHOSPHORUS [2]: 14.53 mg/dL
POTASSIUM [2]: 6.65 MEQ/L
SODIUM [2]: 148.17 MEQ/L
TOTAL BILIRUBIN [2]: 0.28 mg/dL
TOTAL PROTEIN [2]: 6.22 G/DL
URIC ACID [2]: 1.57 mg/dL
BASOPHIL [3]: 0.97%
EOSINOPHIL [3]: 0.8%
ERYTHROCYTE COUNT [3]: 7.02 x10E6/uL
HEMATOCRIT [3]: 44.43%
HEMOGLOBIN [3]: 14.58 G/DL
LEUKOCYTE COUNT [3]: 16.49 x10E3/uL
LYMPHOCYTE [3]: 79.03%
MEAN CORPUSCULAR HEMOGLOBIN [3]: 20.85 pg
MEAN CORPUSCULAR HEMOGLOBIN CONCENTRATION [3]: 32.78 G/DL
MEAN CORPUSCULAR VOLUME [3]: 63.57 fL
MONOCYTE [3]: 1.9%
NEUTROPHIL [3]: 15.18%
PLATELET COUNT [3]: 1184.33 x10E3/uL
ALANINE AMINOTRANSFERASE [3]: 43 u/L
ALBUMIN [3]: 4.25 G/DL
ALKALINE PHOSPHATASE [3]: 409.67 u/L
ASPARTATE AMINOTRANSFERASE [3]: 84.17 u/L
BLOOD UREA NITROGEN [3]: 16 mg/dL
CARBON DIOXIDE [3]: 35.17 mmol/L
CHLORIDE [3]: 99.83 MEQ/L
CHOLESTEROL [3]: 68.67 mg/dL
CREATINE PHOSPHOKINASE [3]: 384.17 u/L
CREATININE [3]: 0.43 mg/dL
GLUCOSE [3]: 160 mg/dL
LACTATE DEHYDROGENASE [3]: 115.33 u/L
LIPASE [3]: 17.33 u/L
PHOSPHORUS [3]: 10.68 mg/dL
POTASSIUM [3]: 6.48 MEQ/L
SODIUM [3]: 148.17 MEQ/L
TOTAL BILIRUBIN [3]: 0.45 mg/dL
TOTAL PROTEIN [3]: 6.57 G/DL
URIC ACID [3]: 1.78 mg/dL
BASOPHIL [4]: 0.9%
EOSINOPHIL [4]: 0.43%
ERYTHROCYTE COUNT [4]: 6.87 x10E6/uL
HEMATOCRIT [4]: 44.5%
HEMOGLOBIN [4]: 14.33 G/DL
LEUKOCYTE COUNT [4]: 11.45 x10E3/uL
LYMPHOCYTE [4]: 88.3%
MEAN CORPUSCULAR HEMOGLOBIN [4]: 20.9 pg
MEAN CORPUSCULAR HEMOGLOBIN CONCENTRATION [4]: 32.27 G/DL
MEAN CORPUSCULAR VOLUME [4]: 64.87 fL
MONOCYTE [4]: 1.27%
NEUTROPHIL [4]: 7.87%
PLATELET COUNT [4]: 1233 x10E3/uL
ALANINE AMINOTRANSFERASE [4]: 42 u/L
ALBUMIN [4]: 4.03 G/DL
ALKALINE PHOSPHATASE [4]: 285.67 u/L
ASPARTATE AMINOTRANSFERASE [4]: 78.33 u/L
BLOOD UREA NITROGEN [4]: 15.33 mg/dL
CARBON DIOXIDE [4]: 30.33 mmol/L
CHLORIDE [4]: 103.67 MEQ/L
CHOLESTEROL [4]: 47 mg/dL
CREATINE PHOSPHOKINASE [4]: 263.33 u/L
CREATININE [4]: 0.5 mg/dL
GLUCOSE [4]: 170 mg/dL
LACTATE DEHYDROGENASE [4]: 57.67 u/L
LIPASE [4]: 11 u/L
PHOSPHORUS [4]: 13.43 mg/dL
POTASSIUM [4]: 7.33 MEQ/L
SODIUM [4]: 146 MEQ/L
TOTAL BILIRUBIN [4]: 0.37 mg/dL
TOTAL PROTEIN [4]: 5.93 G/DL
URIC ACID [4]: 1.53 mg/dL
BASOPHIL [5]: 0.33%
EOSINOPHIL [5]: 0.5%
ERYTHROCYTE COUNT [5]: 7.39 x10E6/uL
HEMATOCRIT [5]: 47.37%
HEMOGLOBIN [5]: 15.03 G/DL
LEUKOCYTE COUNT [5]: 10.09 x10E3/uL
LYMPHOCYTE [5]: 72.77%
MEAN CORPUSCULAR HEMOGLOBIN [5]: 20.37 pg
MEAN CORPUSCULAR HEMOGLOBIN CONCENTRATION [5]: 31.73 G/DL
MEAN CORPUSCULAR VOLUME [5]: 64.2 fL
MONOCYTE [5]: 4.53%
NEUTROPHIL [5]: 20.93%
PLATELET COUNT [5]: 1284.67 x10E3/uL
ALANINE AMINOTRANSFERASE [5]: 55.33 u/L
ALBUMIN [5]: 3.9 G/DL
ALKALINE PHOSPHATASE [5]: 305.67 u/L
ASPARTATE AMINOTRANSFERASE [5]: 236.67 u/L
BLOOD UREA NITROGEN [5]: 13 mg/dL
CARBON DIOXIDE [5]: 28.33 mmol/L
CHLORIDE [5]: 103.67 MEQ/L
CHOLESTEROL [5]: 44.67 mg/dL
CREATINE PHOSPHOKINASE [5]: 186.67 u/L
CREATININE [5]: 0.33 mg/dL
GLUCOSE [5]: 139.33 mg/dL
LACTATE DEHYDROGENASE [5]: 62.67 u/L
LIPASE [5]: 8 u/L
PHOSPHORUS [5]: 12.8 mg/dL
POTASSIUM [5]: 6 MEQ/L
SODIUM [5]: 148 MEQ/L
TOTAL BILIRUBIN [5]: 0.27 mg/dL
TOTAL PROTEIN [5]: 6 G/DL
URIC ACID [5]: 1.63 mg/dL
BASOPHIL [6]: 0.37%
EOSINOPHIL [6]: 0.67%
ERYTHROCYTE COUNT [6]: 7.6 x10E6/uL
HEMATOCRIT [6]: 45.9%
HEMOGLOBIN [6]: 15.3 G/DL
LEUKOCYTE COUNT [6]: 16.12 x10E3/uL
LYMPHOCYTE [6]: 84.43%
MEAN CORPUSCULAR HEMOGLOBIN [6]: 20.2 pg
MEAN CORPUSCULAR HEMOGLOBIN CONCENTRATION [6]: 33.37 G/DL
MEAN CORPUSCULAR VOLUME [6]: 60.43 fL
MONOCYTE [6]: 1.7%
NEUTROPHIL [6]: 11.33%
PLATELET COUNT [6]: 1183 x10E3/uL
ALANINE AMINOTRANSFERASE [6]: 46 u/L
ALBUMIN [6]: 4.3 G/DL
ALKALINE PHOSPHATASE [6]: 329.67 u/L
ASPARTATE AMINOTRANSFERASE [6]: 114 u/L
BLOOD UREA NITROGEN [6]: 16.33 mg/dL
CARBON DIOXIDE [6]: 26.67 mmol/L
CHLORIDE [6]: 101 MEQ/L
CHOLESTEROL [6]: 72 mg/dL
CREATINE PHOSPHOKINASE [6]: 262 u/L
CREATININE [6]: 0.43 mg/dL
GLUCOSE [6]: 144 mg/dL
LACTATE DEHYDROGENASE [6]: 145.67 u/L
LIPASE [6]: 9 u/L
PHOSPHORUS [6]: 10.07 mg/dL
POTASSIUM [6]: 6.2 MEQ/L
SODIUM [6]: 149 MEQ/L
TOTAL BILIRUBIN [6]: 0.4 mg/dL
URIC ACID [6]: 1.8 mg/dL
